Laboratory results published in ChEMBL document CHEMBL1743341, “Cytochrome p450 enzymes mechanism based inhibitors: common sub-structures and reactivity” (Curr Drug Metab, 2005).

Experiments:
Cytochrome P450 3A4 [1] = target: T1, Cytochrome P450 3A4 (Homo sapiens, UniProt P08684); assay: (§1) Mechanism based inhibition of human cytochrome P450 3A4 measured by testosterone 6-beta hydroxylation; type: ADME
CYP3A4 [2] = target: T2, CYP3A4 (Homo sapiens, UniProt P08684); assay: as §1; type: ADME; conditions: human, probe testosterone (6-beta hydroxylation)
Cytochrome P450 3A4 [3] = target: T1, Cytochrome P450 3A4; assay: (§2) Mechanism based inhibition of human cytochrome P450 3A4 measured by midazolam 1'-hydroxylation; type: ADME
CYP3A4 [4] = target: T2, CYP3A4; assay: as §2; type: ADME; conditions: probe midazolam (1'-hydroxylation)
Cytochrome P450 3A4 [5] = target: T1, Cytochrome P450 3A4; assay: Mechanism based inhibition of human cytochrome P450 3A4 measured by testosterone 6-beta hydroxylation and midazolam 1'-hydroxylation; type: ADME
Cytochrome P450 3A4 [6] = target: T1, Cytochrome P450 3A4; assay: (§3) Mechanism based inhibition of human cytochrome P450 3A4 measured by N-demethylation of erythromycin; type: ADME
CYP3A4 [7] = target: T2, CYP3A4; assay: as §3; type: ADME; conditions: human, probe erythromycin (N-demethylation)
Cytochrome P450 2C9 [8] = target: T3, Cytochrome P450 2C9 (Homo sapiens, UniProt P11712); assay: (§4) Mechanism based inhibition of human cytochrome P450 2C9; type: ADME
Cytochrome P450 2B6 [9] = target: T4, Cytochrome P450 2B6 (Homo sapiens, UniProt P20813); assay: Mechanism based inhibition of human cytochrome P450 2B6, partition ratio; type: ADME
T4 sequence (P20813 whole entry): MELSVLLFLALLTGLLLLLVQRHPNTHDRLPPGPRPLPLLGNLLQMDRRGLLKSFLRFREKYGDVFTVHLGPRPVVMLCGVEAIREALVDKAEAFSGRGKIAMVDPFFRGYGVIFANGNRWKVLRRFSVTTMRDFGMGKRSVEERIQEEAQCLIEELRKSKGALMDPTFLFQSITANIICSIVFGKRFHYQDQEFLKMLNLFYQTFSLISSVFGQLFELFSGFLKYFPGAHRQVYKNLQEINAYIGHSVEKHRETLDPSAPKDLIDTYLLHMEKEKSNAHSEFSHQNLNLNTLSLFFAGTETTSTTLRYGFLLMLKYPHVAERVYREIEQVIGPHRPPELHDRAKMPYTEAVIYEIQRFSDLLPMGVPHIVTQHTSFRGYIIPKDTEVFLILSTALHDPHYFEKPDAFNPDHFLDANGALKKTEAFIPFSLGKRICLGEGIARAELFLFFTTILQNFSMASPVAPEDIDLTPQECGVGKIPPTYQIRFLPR

CYP2B6 = target: T5, CYP2B6 (Homo sapiens, UniProt P20813); assay: (§5) Mechanism based inhibition of human cytochrome P450 2B6; type: ADME; conditions: human
T5 sequence (P20813 whole entry): T4 sequence (P20813 whole entry)

Cytochrome P450 2B6 [10] = target: T4, Cytochrome P450 2B6; assay: as §5; type: ADME
CYP2B1 = target: T6, CYP2B1 (Rattus norvegicus, UniProt P00176); assay: (§6) Mechanism based inhibition of rat cytochrome P450 2B1; type: ADME; conditions: rat
T6 sequence (P00176 whole entry): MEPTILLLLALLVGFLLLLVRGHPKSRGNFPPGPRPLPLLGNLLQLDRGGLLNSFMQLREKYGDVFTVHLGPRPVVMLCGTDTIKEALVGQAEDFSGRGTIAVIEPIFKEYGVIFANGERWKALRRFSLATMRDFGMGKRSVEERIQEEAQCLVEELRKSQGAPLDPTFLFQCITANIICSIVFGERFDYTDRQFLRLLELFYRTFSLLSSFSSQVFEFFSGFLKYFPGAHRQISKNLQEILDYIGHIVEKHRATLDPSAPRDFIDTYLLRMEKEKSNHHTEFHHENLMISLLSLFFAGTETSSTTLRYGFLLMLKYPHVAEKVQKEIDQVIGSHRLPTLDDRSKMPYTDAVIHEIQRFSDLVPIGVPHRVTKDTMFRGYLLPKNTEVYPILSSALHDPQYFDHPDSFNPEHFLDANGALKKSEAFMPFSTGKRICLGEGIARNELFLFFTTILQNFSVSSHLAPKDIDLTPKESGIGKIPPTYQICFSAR

Cytochrome P450 2B1 [11] = target: T7, Cytochrome P450 2B1 (Rattus norvegicus, UniProt P00176); assay: as §6; type: ADME
T7 sequence (P00176 whole entry): T6 sequence (P00176 whole entry)

Cytochrome P450 2B1 [12] = target: T7, Cytochrome P450 2B1; assay: Mechanism based inhibition of rat cytochrome P450 2B1, partition ratio; type: ADME
CYP2A6 [13] = target: T8, CYP2A6 (Homo sapiens, UniProt P11509); assay: (§7) Mechanism based inhibition of human cytochrome P450 2A6 measured by coumarin 7-hydroxylation using human liver microsomes; type: ADME, Microsome; conditions: human, human liver microsomes, probe coumarin
T8 sequence (P11509 whole entry): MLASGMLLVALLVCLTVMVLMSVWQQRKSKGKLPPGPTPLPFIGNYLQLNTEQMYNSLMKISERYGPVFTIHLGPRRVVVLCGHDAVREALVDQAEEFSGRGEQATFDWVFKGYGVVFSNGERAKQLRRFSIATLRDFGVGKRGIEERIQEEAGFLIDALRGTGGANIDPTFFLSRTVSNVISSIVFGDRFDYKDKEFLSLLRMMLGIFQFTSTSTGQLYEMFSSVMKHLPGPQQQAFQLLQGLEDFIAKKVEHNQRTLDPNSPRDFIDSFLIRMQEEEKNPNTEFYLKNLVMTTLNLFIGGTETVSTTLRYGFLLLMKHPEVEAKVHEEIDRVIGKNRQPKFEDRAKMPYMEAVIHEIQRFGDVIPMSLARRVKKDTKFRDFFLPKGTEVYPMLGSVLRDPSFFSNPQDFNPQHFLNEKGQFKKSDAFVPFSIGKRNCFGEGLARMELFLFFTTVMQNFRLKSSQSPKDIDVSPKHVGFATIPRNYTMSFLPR

Cytochrome P450 2A6 [14] = target: T9, Cytochrome P450 2A6 (Homo sapiens, UniProt P11509); assay: as §7; type: ADME, Microsome
T9 sequence (P11509 whole entry): T8 sequence (P11509 whole entry)

Cytochrome P450 2A6 [15] = target: T9, Cytochrome P450 2A6; assay: Mechanism based inhibition of human cytochrome P450 2A6, partition ratio; type: ADME
CYP2A6 [16] = target: T8, CYP2A6; assay: (§8) Mechanism based inhibition of human cytochrome P450 2A6 measured by coumarin 7-hxdroxylation using purified P450; type: ADME; conditions: human, purified CYP2A6, probe coumarin (7-hydroxylation)
Cytochrome P450 2A6 [17] = target: T9, Cytochrome P450 2A6; assay: as §8; type: ADME
Cytochrome P450 2D6 [18] = target: T10, Cytochrome P450 2D6 (Homo sapiens, UniProt P10635); assay: (§9) Mechanism based inhibition of human cytochrome P450 2D6 measured by dextromethorphan O-demethylation; type: ADME
CYP2D6 = CYP2D6 (Homo sapiens, UniProt P10635); assay: as §9; type: ADME; conditions: human, probe dextromethorphan
Cytochrome P450 2D6 [19] = target: T10, Cytochrome P450 2D6; assay: Mechanism based inhibition of human cytochrome P450 2D6, partition ratio; type: ADME
CYP3A5 = CYP3A5 (Homo sapiens, UniProt P20815); assay: (§10) Mechanism based inhibition of human cytochrome P450 3A5 using expressed CYP3A5 cDNA; type: ADME; conditions: human, cDNA-expressed CYP3A5
Cytochrome P450 3A5 = Cytochrome P450 3A5 (Homo sapiens, UniProt P20815); assay: as §10; type: ADME
Cytochrome P450 3A4 [20] = target: T1, Cytochrome P450 3A4; assay: (§11) Mechanism based inhibition of human cytochrome P450 3A4 using expressed CYP3A4 cDNA; type: ADME
CYP3A4 [21] = target: T2, CYP3A4; assay: as §11; type: ADME; conditions: human, cDNA-expressed CYP3A4
Cytochrome P450 3A4 [22] = target: T1, Cytochrome P450 3A4; assay: (§12) Mechanism based inhibition of human cytochrome P450 3A4 measured by testosterone 6-beta hydroxylation using human liver microsomes; type: ADME, Microsome
CYP3A4 [23] = target: T2, CYP3A4; assay: as §12; type: ADME, Microsome; conditions: human, liver microsomes, probe testosterone (6-beta hydroxylation)
Cytochrome P450 3A4 [24] = target: T1, Cytochrome P450 3A4; assay: (§13) Mechanism based inhibition of human cytochrome P450 3A4 measured by testosterone 6-beta hydroxylation using a recombinant system; type: ADME
CYP3A4 [25] = target: T2, CYP3A4; assay: as §13; type: ADME; conditions: human, recombinant CYP3A4 system, probe testosterone (6-beta hydroxylation)
CYP2C9 = CYP2C9 (Homo sapiens, UniProt P11712); assay: as §4; type: ADME; conditions: human
Cytochrome P450 2C9 [26] = target: T3, Cytochrome P450 2C9; assay: Mechanism based inhibition of human cytochrome P450 2C9, partition ratio; type: ADME

T2 sequence (P08684 whole entry): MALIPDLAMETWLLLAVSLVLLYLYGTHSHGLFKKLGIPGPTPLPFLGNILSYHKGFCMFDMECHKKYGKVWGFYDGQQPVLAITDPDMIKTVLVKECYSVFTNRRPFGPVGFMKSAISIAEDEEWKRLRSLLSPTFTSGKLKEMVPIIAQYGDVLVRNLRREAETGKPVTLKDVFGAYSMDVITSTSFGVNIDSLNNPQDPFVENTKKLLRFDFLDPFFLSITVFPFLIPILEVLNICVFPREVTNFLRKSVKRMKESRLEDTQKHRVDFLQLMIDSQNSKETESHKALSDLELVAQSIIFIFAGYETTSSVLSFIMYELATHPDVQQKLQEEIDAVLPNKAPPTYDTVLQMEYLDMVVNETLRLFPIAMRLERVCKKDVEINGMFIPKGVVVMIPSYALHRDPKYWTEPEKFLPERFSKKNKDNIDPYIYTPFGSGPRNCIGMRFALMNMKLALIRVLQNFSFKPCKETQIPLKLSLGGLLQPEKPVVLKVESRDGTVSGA
T1 sequence (P08684 whole entry): as above
T3 sequence (P11712 whole entry): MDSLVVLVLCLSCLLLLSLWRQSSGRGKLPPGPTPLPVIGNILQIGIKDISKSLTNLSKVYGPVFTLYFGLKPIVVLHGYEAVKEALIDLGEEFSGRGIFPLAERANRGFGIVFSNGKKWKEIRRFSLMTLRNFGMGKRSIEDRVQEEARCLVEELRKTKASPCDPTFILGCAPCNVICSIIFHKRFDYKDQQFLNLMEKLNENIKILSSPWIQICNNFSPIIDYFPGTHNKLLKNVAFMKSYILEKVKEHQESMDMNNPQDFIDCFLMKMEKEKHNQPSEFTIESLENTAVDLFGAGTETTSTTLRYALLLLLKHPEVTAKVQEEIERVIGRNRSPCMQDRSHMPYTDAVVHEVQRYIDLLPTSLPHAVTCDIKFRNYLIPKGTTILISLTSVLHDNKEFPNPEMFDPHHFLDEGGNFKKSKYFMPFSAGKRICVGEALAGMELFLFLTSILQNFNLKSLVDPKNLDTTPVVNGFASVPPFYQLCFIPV
T10 sequence (P10635 whole entry): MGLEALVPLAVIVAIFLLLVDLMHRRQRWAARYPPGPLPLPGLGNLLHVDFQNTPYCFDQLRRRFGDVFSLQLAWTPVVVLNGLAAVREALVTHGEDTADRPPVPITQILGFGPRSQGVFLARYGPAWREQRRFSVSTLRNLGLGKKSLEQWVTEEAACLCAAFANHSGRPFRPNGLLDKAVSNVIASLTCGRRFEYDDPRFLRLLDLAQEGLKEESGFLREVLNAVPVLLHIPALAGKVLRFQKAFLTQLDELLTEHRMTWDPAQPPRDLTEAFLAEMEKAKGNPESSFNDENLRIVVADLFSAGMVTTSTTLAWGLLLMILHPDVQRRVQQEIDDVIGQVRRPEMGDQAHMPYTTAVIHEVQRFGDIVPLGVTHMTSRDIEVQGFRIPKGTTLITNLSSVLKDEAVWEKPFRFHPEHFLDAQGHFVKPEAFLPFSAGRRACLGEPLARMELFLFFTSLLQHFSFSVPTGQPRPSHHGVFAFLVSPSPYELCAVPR
CYP2D6, sequence (P10635 whole entry): as above
Cytochrome P450 3A5, sequence (P20815 whole entry): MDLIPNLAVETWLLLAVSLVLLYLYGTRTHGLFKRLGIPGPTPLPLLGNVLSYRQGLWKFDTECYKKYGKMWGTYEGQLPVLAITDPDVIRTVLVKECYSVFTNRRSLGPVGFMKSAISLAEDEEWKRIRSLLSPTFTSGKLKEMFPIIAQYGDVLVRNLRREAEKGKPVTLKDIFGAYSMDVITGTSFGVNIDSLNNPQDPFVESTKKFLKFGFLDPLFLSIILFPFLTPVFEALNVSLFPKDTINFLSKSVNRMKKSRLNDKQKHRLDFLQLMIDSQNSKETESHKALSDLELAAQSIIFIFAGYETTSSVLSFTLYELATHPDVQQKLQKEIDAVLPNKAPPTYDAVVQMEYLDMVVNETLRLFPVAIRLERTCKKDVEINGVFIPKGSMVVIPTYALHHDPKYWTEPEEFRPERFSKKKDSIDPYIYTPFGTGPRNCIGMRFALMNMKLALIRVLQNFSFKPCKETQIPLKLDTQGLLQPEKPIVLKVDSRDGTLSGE
CYP3A5, sequence (P20815 whole entry): as above
CYP2C9, sequence (P11712 whole entry): as the sequence (P11712 whole entry) above

SMILES: CC/C(=C(\c1ccccc1)c1ccc(OCCN)cc1)c1ccccc1 [DESMETHYL TAMOXIFEN]
- Ki (Cytochrome P450 3A4 [1]): 2.6 µM
- kinact (CYP3A4 [2]): 0.00133 s⁻¹
- Ki (Cytochrome P450 3A4 [3]): 12 µM
- kinact (CYP3A4 [4]): 0.00217 s⁻¹

SMILES: COCC(=O)O[C@]1(CCN(C)CCCc2nc3ccccc3[nH]2)CCc2cc(F)ccc2[C@@H]1C(C)C [MIBEFRADIL]
- mechanism based inhibition (Cytochrome P450 3A4 [5]): Cytochrome P450 mechanistic inhibitor: PMID 10640508

SMILES: COc1cc2c(c(OC)c1OC)-c1c(cc3c(c1OC)OCO3)C[C@H](C)[C@](C)(O)[C@H]2OC(=O)c1ccccc1 [GOMISIN C]
- Ki (Cytochrome P450 3A4 [6]): 0.399 µM
- kinact (CYP3A4 [7]): 0.00153 s⁻¹

SMILES: CC(C)(c1ccccc1)N1CCCCC1
- mechanism based inhibition (Cytochrome P450 2C9 [8]): Cytochrome P450 mechanistic inhibitor: PMID 10901701
- Partition ratio (Cytochrome P450 2B6 [9]): 15
- kinact (CYP2B6): 0.00117 s⁻¹
- Ki (Cytochrome P450 2B6 [10]): 1.2 µM
- kinact (CYP2B1): 0.005 s⁻¹
- Ki (Cytochrome P450 2B1 [11]): 12 µM
- Partition ratio (Cytochrome P450 2B1 [12]): 31

SMILES: Cc1coc2c1CCC(C)C2 (stereo not drawn) [MENTHOFURAN]
- kinact (CYP2A6 [13]): 0.00367 s⁻¹
- Ki (Cytochrome P450 2A6 [14]): 2.5 µM
- Partition ratio (Cytochrome P450 2A6 [15]): 3.5
- kinact (CYP2A6 [16]): 0.00417 s⁻¹
- Ki (Cytochrome P450 2A6 [17]): 0.84 µM

SMILES: CCc1nc(C)c(CN2CCN(c3cc(C(F)(F)F)ccn3)CC2)[nH]1
- Ki (Cytochrome P450 2D6 [18]): 5.5 µM
- kinact (CYP2D6): 0.0015 s⁻¹
- Partition ratio (Cytochrome P450 2D6 [19]): 99

SMILES: COc1ccc(CCNCCCC(C#N)(c2ccc(OC)c(OC)c2)C(C)C)cc1OC (stereo not drawn) [NORVERAPAMIL]
- kinact (CYP3A5): 0.00117 s⁻¹
- Ki (Cytochrome P450 3A5): 4.53 µM
- Ki (Cytochrome P450 3A4 [20]): 10.3 µM
- kinact (CYP3A4 [21]): 0.005 s⁻¹
- Ki (Cytochrome P450 3A4 [22]): 2.11 µM
- kinact (CYP3A4 [23]): 0.0035 s⁻¹
- Ki (Cytochrome P450 3A4 [24]): 5.89 µM
- kinact (CYP3A4 [25]): 0.0187 s⁻¹

SMILES: CC(C(=O)O)c1ccc(C(=O)c2cccs2)cc1 (racemic) [SUPROFEN]
- kinact (CYP2C9): 0.00152 s⁻¹
- Ki (Cytochrome P450 2C9 [8]): 3.7 µM
- Partition ratio (Cytochrome P450 2C9 [26]): 101
